Measurements as given in patent publication US20230277612A1, “SAPONIN DERIVATIVES FOR USE IN MEDICINE” (priority 2020, published 2023).

What was measured:
[1] = test system: EGFR expressing cells (HeLa and A431); details: summary in description
[2] = Critical micellar concentration (CMC) by ANS fluorescence; type: physicochemical
Procedure: The critical micellar concentration (CMC) of saponins derived from Saponaria officinalis (SO) (Table A7) and derived from Quillaja saponaria (QS) (Table A8, and Table A9) was determined by the method of DeVendittis et al. (A fluorimetric method for the estimation of the critical micelle concentration of surfactants, Analytical Biochemistry, Volume 115, Issue 2, August 1981, Pages 278-286) as follows:
(§1) The emission spectrum of 8-Anilinonaphthalene-1-sulfonic acid (ANS) in either purified water (MQ) or PBS (Dulbecco's PBS+/+) was determined at dry weight concentrations of saponins ranging from 1 to 1400 pM to cover the range below and above the CMC. Above the CMC, the fluorescence yield of ANS increases and the wavelength of maximum emission decreases due to portioning of the fluorescent dye into micelles. Fluorescence yields were recorded on a Fluoroskan Ascent FL (Thermo Scientific) at an excitation wavelength of 355 nm, and an emission wavelength of 460 nm. 6 μg at a concentration of 75.86 pM of ANS were used per sample and measurement.
The critical micellar concentration (CMC) of saponins was determined by the method of DeVendittis et al. (A fluorimetric method for the estimation of the critical micelle concentration of surfactants, Analytical Biochemistry, Volume 115, Issue 2, August 1981, Pages 278-286) as follows:
as §1, with “μM” for “pM”

HeLa cells [3] = experiment: Pilot cell-based bioassay: 10 μg/ml saponin with or without 1.5 pM dianthin-EGF, 72 h, relative cell viability; design: key to Cell killing activity (+ or −): Cell killing activity (+ or −); Cell killing activity (+ or −)
Procedure: HeLa cells were incubated for 72 h with the following constructs and cell viability before and after the 72 h-incubation was assessed. In the experiments, cells were exposed to 1.5 pM dianthin-EGF conjugate. A negative control were cells incubated with buffer vehicle and 10 microgram/ml saponin, without dianthin-EGF. Cell viability was set to 100% for the control in which both saponin and EGF-dianthin were omitted. […] Cell viability after 72 h was essentially 0%. For the chemically modified saponin variants, 10 microgram/ml saponin was tested in combination with 1.5 pM dianthin-EGF.

HeLa (EGFR+) cells = experiment: Saponin titration in presence and absence of […] EGFdianthin, cell viability; type: cell-based; details: in absence of EGFdianthin
Procedure: To extend this test, saponins from other sources were analyzed. A saponin purified from a root extract of Gypsophila elegans M.Bieb. […] FIG. 63C).

A431 (EGFR++) cells = experiment: Saponin derivative titration in presence and absence of […] EGFdianthin, cell viability; type: cell-based; details: A431, without EGFdianthin
[4] = test system: EGFR expressing cells (A431); experiment: Saponin titration on fixed 10 pM cetuximab-saporin, cell viability (MTS); type: cell-based; details: without cetuximab-saporin
HeLa cells [5] = experiment: cells; type: cell-based; details: saponin alone, read-out: IC50 toxicity
Procedure: (FIGS. 66a and 66B). Next toxicity was determined, for this the modified saponins were titrated on HeLa and A431 cells. […] Next toxicity was determined, for this the modified saponins were titrated on HeLa and A431 cells.

[6] = test system: EGFR expressing cells (A431); experiment: Saponin titration on fixed 10 pM EGFdianthin, cell viability (MTS); type: cell-based; details: without EGFdianthin
A2058 (EGFR−) cells = experiment: Saponin derivative titration in presence and absence of […] EGFdianthin, cell viability; type: cell-based; details: without EGFdianthin
[7] = 10 μg/ml SO1861 or SO1861-derivative + […] EGFdianthin
[8] = 10 μg/ml SO1861 or SO1861-derivative alone

## CC1OC(OC2C(C)OC(OC(=O)[C@]34CCC(C)(C)CC3C3=CCC5[C@@]6(C)CC[C@H](OC7OC(C(=O)O)C(O)C(OC8OCC(O)C(O)C8O)C7OC7OC(CO)C(O)C(O)C7O)[C@@](C)(C=O)C6CC[C@@]5(C)[C@]3(C)C[C@H]4O)C(OC3OC(C)C(OC4OCC(O)C(OC5OC(CO)C(O)C(O)C5O)C4O)C(O)C3O)C2O)C(O)C(OC2OCC(O)C(O)C2O)C1O (stereo partly drawn) [Molecule 8]
[1]
  Endosomal escape enhancing activity (enhancement of cytotoxicity of effector conjugate): display activity
[2]
  CMC compared to corresponding underivatised saponin: increased CMC

## CC(=O)OC1C(C)OC(OC2C(C)OC(OC(=O)C34CCC(C)(C)CC3C3=CCC5C6(C)CCC(OC7OC(C(=O)O)C(O)C(OC8OCC(O)C(O)C8O)C7OC7OC(CO)C(O)C(O)C7O)C(C)(C=NNC(=O)CCOCCOCCOCCOCCN=[N+]=[N-])C6CCC5(C)C3(C)CC4O)C(OC3OC(C)C(OC4OCC(O)C(OC5OC(CO)C(O)C(O)C5O)C4O)C(O)C3O)C2O)C(O)C1OC1OCC(O)C(O)C1O (stereo not drawn)
HeLa cells [3]; [7]
  Cell killing activity (+ or −): +
HeLa cells [3]; [8]
  Cell killing activity (+ or −): −
HeLa (EGFR+) cells; read-out: General toxicity (IC50 / highest concentration)
  IC50: > 10 µM
A431 (EGFR++) cells; read-out: Toxicity as single compound
  IC50: > 10 µM

## CC(=O)OC1C(C)OC(OC2C(C)OC(OC(=O)[C@]34CCC(C)(C)CC3C3=CCC5[C@@]6(C)CC[C@H](OC7OC(C(=O)O)C(O)C(OC8OCC(O)C(O)C8O)C7OC7OC(CO)C(O)C(O)C7O)[C@@](C)(C=O)C6CC[C@@]5(C)[C@]3(C)C[C@H]4O)C(OC3OC(C)C(OC4OCC(O)C(OC5OC(CO)C(O)C(O)C5O)C4O)C(O)C3O)C2O)C(O)C1OC1OCC(O)C(O)C1O (stereo partly drawn) [SO1861, reference compound]
[4]
  Cell killing activity of saponin alone: no cell killing activity
HeLa cells [3]; [7]
  Cell killing activity (+ or −): +
HeLa cells [3]; [8]
  Cell killing activity (+ or −): −
HeLa cells [3]; 10 microgram/ml saponin + […] dianthin-EGF, HeLa cells
  Cell viability after 72 h: ~0%
HeLa cells [5]
  IC50: 1 µM
[6]
  Cell killing activity of saponin alone: no cell killing activity
HeLa (EGFR+) cells
  General toxicity (IC50 / highest concentration): strong cell viability reduction
A2058 (EGFR−) cells
  Toxicity as single compound: strong cell viability reduction
[2]; PBS
  CMC value: 185 µM
[2]; Table A7, determined in PBS
  CMC: 185 ± 19 µM
A431 (EGFR++) cells
  Toxicity as single compound: strong cell viability reduction

## CC(=O)OC1C(C)OC(OC2C(C)OC(OC(=O)[C@]34CCC(C)(C)CC3C3=CCC5[C@@]6(C)CC[C@H](OC7OC(C(=O)NCCN8C(=O)C=CC8=O)C(O)C(OC8OCC(O)C(O)C8O)C7OC7OC(CO)C(O)C(O)C7O)[C@@](C)(C=O)C6CC[C@@]5(C)[C@]3(C)C[C@H]4O)C(OC3OC(C)C(OC4OCC(O)C(OC5OC(CO)C(O)C(O)C5O)C4O)C(O)C3O)C2O)C(O)C1OC1OCC(O)C(O)C1O (stereo partly drawn) [Molecule 18]
[1]
  Endosomal escape enhancing activity (enhancement of cytotoxicity of effector conjugate): display activity

## CC(=O)OC1C(C)OC(OC2C(C)OC(OC(=O)C34CCC(C)(C)CC3C3=CCC5C6(C)CCC(OC7OC(C(=O)NC(C)(CO)CO)C(O)C(OC8OCC(O)C(O)C8O)C7OC7OC(CO)C(O)C(O)C7O)C(C)(C=NNC(=O)CCCCCN7C(=O)C=CC7=O)C6CCC5(C)C3(C)CC4O)C(OC3OC(C)C(OC4OCC(O)C(OC5OC(CO)C(O)C(O)C5O)C4O)C(O)C3O)C2O)C(O)C1OC1OCC(O)C(O)C1O (stereo not drawn) [Molecule 14]
[1]
  Endosomal escape enhancing activity (enhancement of cytotoxicity of effector conjugate): have the capacity to enhance the cytotoxic effect

## CC(=O)OC1C(C)OC(OC2C(C)OC(OC(=O)[C@]34CCC(C)(C)CC3C3=CCC5[C@@]6(C)CC[C@H](OC7OC(C(=O)NC(C)(CO)CO)C(O)C(OC8OCC(O)C(O)C8O)C7OC7OC(CO)C(O)C(O)C7O)[C@@](C)(C=O)C6CC[C@@]5(C)[C@]3(C)C[C@H]4O)C(OC3OC(C)C(OC4OCC(O)C(OC5OC(CO)C(O)C(O)C5O)C4O)C(O)C3O)C2O)C(O)C1OC1OCC(O)C(O)C1O (stereo partly drawn) [Molecule 3A]
[1]
  Endosomal escape enhancing activity (enhancement of cytotoxicity of effector conjugate): display activity

## CC(=O)OC1C(C)OC(OC2C(C)OC(OC(=O)[C@]34CCC(C)(C)CC3C3=CCC5[C@@]6(C)CC[C@H](OC7OC(C(=O)NCCN8C(=O)C=CC8=O)C(O)C(OC8OCC(O)C(O)C8O)C7OC7OC(CO)C(O)C(O)C7O)[C@@](C)(CO)C6CC[C@@]5(C)[C@]3(C)C[C@H]4O)C(OC3OC(C)C(OC4OCC(O)C(OC5OC(CO)C(O)C(O)C5O)C4O)C(O)C3O)C2O)C(O)C1OC1OCC(O)C(O)C1O (stereo partly drawn) [Molecule 20]
[1]
  Endosomal escape enhancing activity (enhancement of cytotoxicity of effector conjugate): have the capacity to enhance the cytotoxic effect

## CC1OC(OC2C(C)OC(OC(=O)[C@]34CCC(C)(C)CC3C3=CCC5[C@@]6(C)CC[C@H](OC7OC(C(=O)O)C(O)C(OC8OCC(O)C(O)C8O)C7OC7OC(CO)C(O)C(O)C7O)[C@@](C)(CO)C6CC[C@@]5(C)[C@]3(C)C[C@H]4O)C(OC3OC(C)C(OC4OCC(O)C(OC5OC(CO)C(O)C(O)C5O)C4O)C(O)C3O)C2O)C(O)C(OC2OCC(O)C(O)C2O)C1O (stereo partly drawn) [Molecule 10]
[1]
  Endosomal escape enhancing activity (enhancement of cytotoxicity of effector conjugate): have the capacity to enhance the cytotoxic effect
[2]
  CMC compared to corresponding underivatised saponin: increased CMC

## CC(=O)OC1C(C)OC(OC2C(C)OC(OC(=O)[C@]34CCC(C)(C)CC3C3=CCC5[C@@]6(C)CC[C@H](OC7OC(C(=O)O)C(O)C(OC8OCC(O)C(O)C8O)C7OC7OC(CO)C(O)C(O)C7O)[C@@](C)(CO)C6CC[C@@]5(C)[C@]3(C)C[C@H]4O)C(OC3OC(C)C(OC4OCC(O)C(OC5OC(CO)C(O)C(O)C5O)C4O)C(O)C3O)C2O)C(O)C1OC1OCC(O)C(O)C1O (stereo partly drawn) [Molecule 6]
[1]
  Endosomal escape enhancing activity (enhancement of cytotoxicity of effector conjugate): have the capacity to enhance the cytotoxic effect
[2]
  CMC compared to corresponding underivatised saponin: increased CMC

## CC1OC(OC2C(C)OC(OC(=O)C34CCC(C)(C)CC3C3=CCC5C6(C)CCC(OC7OC(C(=O)O)C(O)C(OC8OCC(O)C(O)C8O)C7OC7OC(CO)C(O)C(O)C7O)C(C)(C=NNC(=O)CCCCCN7C(=O)C=CC7=O)C6CCC5(C)C3(C)CC4O)C(OC3OC(C)C(OC4OCC(O)C(OC5OC(CO)C(O)C(O)C5O)C4O)C(O)C3O)C2O)C(O)C(OC2OCC(O)C(O)C2O)C1O (stereo not drawn) [Molecule 15]
[1]
  Endosomal escape enhancing activity (enhancement of cytotoxicity of effector conjugate): have the capacity to enhance the cytotoxic effect
[2]
  CMC compared to corresponding underivatised saponin: increased CMC
